# Data taken from patent US9079895B2, “Morpholino compounds, uses and methods” (University of Dundee, priority 2012, dated 2015).
# pKi: −log10 of the molar value.
# How the values were obtained:
# 5HT1d receptor = 5HT1d receptor (Homo sapiens (Human), UniProt P28221); assay: Secondary radioligand binding assay, 5HT1d; parameters: key to Ki 5HT1d: “—” indicates that a binding interaction was not detected; conditions: average of at least two experiments;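 note: competition binding against a radioligand on membranes from transfected cell lines, 1.5 h at room temperature, filter-retained radioactivity counted by liquid scintillation, total binding plotted versus log competitor concentration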
# 5HT5 receptor = 5HT5 receptor (Homo sapiens (Human), UniProt P47898); assay: Secondary radioligand binding assay, 5HT5; parameters: key: “—” indicates that a binding interaction was not detected; conditions: average of at least two experiments;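 note: competitive radioligand displacement on membranes from transfected cell lines, incubated at room temperature in the dark, filter-retained radioactivity counted by liquid scintillation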
# hERG = hERG (Homo sapiens (Human), UniProt Q12809); assay: hERG assay (PatchXpress patch clamp); assay type: cell-based; conditions: read-out: hERG inhibition pEC50 (converted)
# Experimental: 2. hERG Assay hERG activity was assayed by the patch clamp method on a PatchXpress platform and by FluxOR T1+ assays.
# 5HT4 receptor = 5HT4 receptor (Homo sapiens (Human), UniProt Q13639); assay: Secondary radioligand binding assay, 5HT4; parameters: key: “—” indicates that a binding interaction was not detected; conditions: average of at least two experiments
# Experimental: 1. Secondary Radioligand Binding Assays The detailed experimental protocols for the radioligand and functional receptor assays are available on the NIMH PDSP website at http://pdsp.med.unc.edu/UNC-CH %20Protocol %20Book.pdf. Assay Buffer: Standard Binding Buffer (50 mM Tris-HCl, 10 mM MgCl2, 1 mM EDTA, pH 7.4) Membrane Fraction Source: Transiently or stably transfected cell lines (e.g., HEK293, COS, CHO, NIH3T3) Protocol adapted from Roth et al. (1986), J. Pharmacol. Exp. Ther., 238(2): 480-485; and Roth et al. (1994), J. Pharmacol. Exp. Ther., 268(3): 1403-1410. […] A similar stock of a reference compound (positive control) is also prepared. […] Radioligand is diluted to five times the assay concentration (see Table 18) in Standard Binding Buffer. Typically, the assay concentration of radioligand is a value between one half the KD and the KD of a particular radioligand at its target. 50 μl aliquots of radioligand are dispensed into the wells of a 96-well plate containing 100 μl of Standard Binding Buffer. Then, duplicate 50 μl aliquots of the test and reference compound dilutions are added. Finally, crude membrane fractions of cells expressing recombinant target (prepared from 10 cm plates by harvesting PBS-rinsed monolayers, resuspending and lysing in chilled, hypotonic 50 mM Tris-HCl, pH 7.4, centrifuging at 20,000×g, decanting the supernatant and storing at −80° C.; typically, one 10 cm plate provides sufficient material for 24 wells), are resuspended in 3 ml of chilled Standard Binding Buffer and homogenized by several passages through a 26 gauge needle, then 50 μl are dispensed into each well. […] Four rapid 500 μl washes are performed with chilled Standard Binding Buffer to reduce non-specific binding. Filters are placed in 6 ml scintillation tubes and allowed to dry overnight. The next day, 4 ml of EcoScint scintillation cocktail (National Diagnostics) are added to each tube. The tubes are capped, labeled, and counted by liquid scintillation counting. For higher throughput assays, bound radioactivity is harvested onto 0.3% polyethyleneimine-treated, 96-well filter mats using a 96-well Filtermate harvester. The filter mats are dried, then scintillant is melted onto the filters and the radioactivity retained on the filters is counted in a Microbeta scintillation counter. Raw data (dpm) representing total radioligand binding (i.e. specific+non-specific binding) are plotted as a function of the logarithm of the molar concentration of the competitor (i.e. test or reference compound).
# 5HT1a receptor = 5HT1a receptor (Homo sapiens (Human), UniProt P08908); assay: Secondary radioligand binding assay, 5HT1a; conditions: average of at least two experiments
# 5HT2a receptor = 5HT2a receptor (Homo sapiens (Human), UniProt P28223); assay: Secondary radioligand binding assay, 5HT2a; conditions: average of at least two experiments
# dopamine D4 receptor = dopamine D4 receptor (Homo sapiens (Human), UniProt P21917); assay: Secondary radioligand binding assay, D4; conditions: receptor binding; average of at least two experiments; read-out: Ki D4
# Experimental: 1. Secondary Radioligand Binding Assays
# The detailed experimental protocols for the radioligand and functional receptor assays are available on the NIMH PDSP website at http://pdsp.med.unc.edu/UNC-CH %20Protocol %20Book.pdf.
# Radioligand is diluted to five times the assay concentration (see Table 18) in Standard Binding Buffer. Typically, the assay concentration of radioligand is a value between one half the KD and the KD of a particular radioligand at its target. 50 μl aliquots of radioligand are dispensed into the wells of a 96-well plate containing 100 μl of Standard Binding Buffer. Then, duplicate 50 μl aliquots of the test and reference compound dilutions are added.
# The 250 μl reactions are incubated at room temperature and shielded from light (to prevent photolysis of light-sensitive ligands) for 1.5 hours, then harvested by rapid filtration onto Whatman GF/B glass fiber filters pre-soaked with 0.3% polyethyleneimine using a 96-well Brandel harverster. Four rapid 500 μl washes are performed with chilled Standard Binding Buffer to reduce non-specific binding. Filters are placed in 6 ml scintillation tubes and allowed to dry overnight. The next day, 4 ml of EcoScint scintillation cocktail (National Diagnostics) are added to each tube. The tubes are capped, labeled, and counted by liquid scintillation counting. […] The filter mats are dried, then scintillant is melted onto the filters and the radioactivity retained on the filters is counted in a Microbeta scintillation counter.
# Raw data (dpm) representing total radioligand binding (i.e. specific+non-specific binding) are plotted as a function of the logarithm of the molar concentration of the competitor (i.e. test or reference compound).
# B. Dopamine Receptors: D1, D2, D3, D4, D5 Assay Buffers: Dopamine Binding Buffer (50 mM NaCl, 50 mM HEPES-HCl, 5 mM MgCl2, 0.5 mM EDTA, pH 7.4) Membrane Fraction Source: Transiently or stably transfected cell lines (e.g. HEK293, COS, CHO, NIH3T3)
# The method is carried out in the manner described for the serotonin receptor assay above. Eleven dilutions (5× assay concentration) of the test and reference (see Table 19) compounds are prepared in Dopamine Binding Buffer by serial dilution, as previously described. Radioligand is diluted to five times the assay concentration (see Table 20) in Dopamine Binding Buffer.
# Chain of 5HT5 receptor (P47898 whole entry): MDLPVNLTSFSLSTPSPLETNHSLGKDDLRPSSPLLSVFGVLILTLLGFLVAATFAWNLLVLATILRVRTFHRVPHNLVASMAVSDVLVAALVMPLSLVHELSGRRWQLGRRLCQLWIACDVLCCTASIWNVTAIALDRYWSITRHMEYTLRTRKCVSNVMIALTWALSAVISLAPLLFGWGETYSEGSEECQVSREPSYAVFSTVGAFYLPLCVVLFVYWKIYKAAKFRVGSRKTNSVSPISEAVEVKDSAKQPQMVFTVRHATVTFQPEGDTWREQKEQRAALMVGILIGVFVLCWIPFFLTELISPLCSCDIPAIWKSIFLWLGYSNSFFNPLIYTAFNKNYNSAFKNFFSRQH
# Chain of 5HT4 receptor (Q13639 whole entry): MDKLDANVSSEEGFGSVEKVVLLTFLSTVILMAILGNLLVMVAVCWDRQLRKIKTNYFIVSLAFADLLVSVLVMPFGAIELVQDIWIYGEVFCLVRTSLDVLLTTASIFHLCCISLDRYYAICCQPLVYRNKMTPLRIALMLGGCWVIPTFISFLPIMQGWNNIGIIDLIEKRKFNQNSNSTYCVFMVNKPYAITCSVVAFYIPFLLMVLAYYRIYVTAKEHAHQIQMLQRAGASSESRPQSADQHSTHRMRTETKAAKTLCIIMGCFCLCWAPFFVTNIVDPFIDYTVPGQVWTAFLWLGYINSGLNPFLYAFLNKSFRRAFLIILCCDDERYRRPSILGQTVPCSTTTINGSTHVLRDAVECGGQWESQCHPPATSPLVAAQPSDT
# Chain of 5HT2a receptor (P28223 whole entry): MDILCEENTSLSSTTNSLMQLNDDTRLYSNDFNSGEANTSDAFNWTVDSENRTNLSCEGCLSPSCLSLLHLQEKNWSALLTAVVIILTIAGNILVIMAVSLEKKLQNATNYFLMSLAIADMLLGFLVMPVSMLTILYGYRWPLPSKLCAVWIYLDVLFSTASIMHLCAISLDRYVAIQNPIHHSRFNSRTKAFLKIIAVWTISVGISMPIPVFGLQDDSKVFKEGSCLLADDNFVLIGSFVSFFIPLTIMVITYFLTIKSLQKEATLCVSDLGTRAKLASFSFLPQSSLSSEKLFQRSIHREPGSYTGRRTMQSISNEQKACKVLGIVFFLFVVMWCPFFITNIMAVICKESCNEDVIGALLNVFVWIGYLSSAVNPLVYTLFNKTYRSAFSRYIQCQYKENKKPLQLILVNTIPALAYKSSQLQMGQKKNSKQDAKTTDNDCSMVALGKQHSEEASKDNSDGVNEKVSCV
# Chain of hERG (Q12809 whole entry): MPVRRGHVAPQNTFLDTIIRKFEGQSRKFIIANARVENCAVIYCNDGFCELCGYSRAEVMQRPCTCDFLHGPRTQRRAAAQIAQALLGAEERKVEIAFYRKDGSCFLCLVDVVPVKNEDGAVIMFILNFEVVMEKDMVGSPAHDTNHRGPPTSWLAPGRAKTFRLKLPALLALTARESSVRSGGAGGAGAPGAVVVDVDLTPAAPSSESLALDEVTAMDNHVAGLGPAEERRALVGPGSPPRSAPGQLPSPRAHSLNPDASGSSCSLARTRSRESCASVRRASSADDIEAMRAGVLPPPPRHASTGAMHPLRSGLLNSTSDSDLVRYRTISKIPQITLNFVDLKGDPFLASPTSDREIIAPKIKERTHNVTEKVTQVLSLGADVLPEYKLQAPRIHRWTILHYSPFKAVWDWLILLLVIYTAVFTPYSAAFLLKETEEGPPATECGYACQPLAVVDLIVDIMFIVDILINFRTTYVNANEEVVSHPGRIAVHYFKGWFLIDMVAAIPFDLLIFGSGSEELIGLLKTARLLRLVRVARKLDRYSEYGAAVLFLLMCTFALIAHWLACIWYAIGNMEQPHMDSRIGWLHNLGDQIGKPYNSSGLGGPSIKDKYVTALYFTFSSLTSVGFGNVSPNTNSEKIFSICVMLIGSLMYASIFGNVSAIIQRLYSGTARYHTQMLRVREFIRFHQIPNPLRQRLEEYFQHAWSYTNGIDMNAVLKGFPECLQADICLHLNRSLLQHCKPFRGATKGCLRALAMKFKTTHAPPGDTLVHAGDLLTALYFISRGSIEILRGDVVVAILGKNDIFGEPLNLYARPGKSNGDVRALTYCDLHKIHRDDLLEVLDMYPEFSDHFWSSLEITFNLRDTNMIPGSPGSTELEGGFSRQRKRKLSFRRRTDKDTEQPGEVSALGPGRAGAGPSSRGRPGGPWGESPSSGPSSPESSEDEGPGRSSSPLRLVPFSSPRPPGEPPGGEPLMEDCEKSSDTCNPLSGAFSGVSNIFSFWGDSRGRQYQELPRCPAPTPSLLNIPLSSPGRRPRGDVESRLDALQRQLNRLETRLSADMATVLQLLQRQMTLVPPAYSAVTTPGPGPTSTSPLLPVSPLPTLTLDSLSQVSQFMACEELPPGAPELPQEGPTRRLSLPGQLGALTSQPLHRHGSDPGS
# Chain of 5HT1a receptor (P08908 whole entry): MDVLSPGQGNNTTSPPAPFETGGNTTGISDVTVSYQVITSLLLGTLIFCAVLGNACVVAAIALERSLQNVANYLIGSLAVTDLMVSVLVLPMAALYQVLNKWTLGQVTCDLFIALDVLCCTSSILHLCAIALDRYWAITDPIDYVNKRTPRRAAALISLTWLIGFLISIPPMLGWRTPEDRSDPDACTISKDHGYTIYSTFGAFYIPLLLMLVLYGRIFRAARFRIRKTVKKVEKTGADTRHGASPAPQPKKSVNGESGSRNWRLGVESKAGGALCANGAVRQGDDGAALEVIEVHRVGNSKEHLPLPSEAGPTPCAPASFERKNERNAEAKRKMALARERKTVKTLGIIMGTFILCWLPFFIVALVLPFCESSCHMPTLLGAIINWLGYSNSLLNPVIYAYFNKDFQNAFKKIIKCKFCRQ
# Chain of dopamine D4 receptor (P21917 whole entry, species assumed): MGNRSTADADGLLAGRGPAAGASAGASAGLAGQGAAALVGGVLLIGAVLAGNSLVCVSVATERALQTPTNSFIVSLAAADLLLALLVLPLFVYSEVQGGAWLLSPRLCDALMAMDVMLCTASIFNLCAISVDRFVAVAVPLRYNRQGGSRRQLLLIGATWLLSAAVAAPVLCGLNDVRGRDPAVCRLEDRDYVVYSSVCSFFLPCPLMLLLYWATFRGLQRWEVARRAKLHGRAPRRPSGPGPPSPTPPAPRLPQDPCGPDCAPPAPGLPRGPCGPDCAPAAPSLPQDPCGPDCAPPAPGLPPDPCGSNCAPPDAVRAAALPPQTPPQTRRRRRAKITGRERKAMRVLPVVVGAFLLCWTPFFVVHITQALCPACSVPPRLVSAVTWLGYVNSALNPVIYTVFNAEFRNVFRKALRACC
# Chain of 5HT1d receptor (P28221 whole entry): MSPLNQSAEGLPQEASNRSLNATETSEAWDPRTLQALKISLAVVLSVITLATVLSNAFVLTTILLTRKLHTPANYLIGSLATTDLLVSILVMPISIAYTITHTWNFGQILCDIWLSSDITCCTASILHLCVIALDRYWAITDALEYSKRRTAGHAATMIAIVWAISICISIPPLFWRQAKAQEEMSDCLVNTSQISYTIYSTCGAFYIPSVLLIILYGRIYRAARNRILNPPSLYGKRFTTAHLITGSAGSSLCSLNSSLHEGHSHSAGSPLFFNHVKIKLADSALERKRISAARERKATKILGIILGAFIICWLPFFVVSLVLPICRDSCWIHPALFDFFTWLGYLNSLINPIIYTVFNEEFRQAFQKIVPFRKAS
smiles,measurement,setting,value
"c1cncc(OC[C@@H]2CN(CCN3CCc4ccccc43)CCO2)c1 [Compound 21s, (S)-4-(2-(Indolin-1-yl)ethyl)-2-((pyridin-3-yloxy)methyl)morpholine]",Ki 5HT1d,5HT1d receptor,—
same,Ki 5HT5,5HT5 receptor,—
same,EC50,hERG,1.51 µM
same,Ki 5HT4,5HT4 receptor,—
same,pKi,5HT1a receptor,5.00
same,pKi,5HT2a receptor,5.45
same,pKi,dopamine D4 receptor,6.74
